Data taken from US20230391842A1, “RETRO-INVERSO PEPTIDES” (Herantis Pharma OYJ, priority 2019, published 2023).
Positions of bridges follow the written chain, without caps; N, C: chain ends. Non-standard residues stand in square brackets, D forms with d. Residues, ends and D or L forms follow the SMILES beside them.

Key:
human hepatocytes = assay: In vitro metabolic stability in human hepatocytes; conditions: 1 μM, 37° C., 0-60 min
[1] = In vitro metabolic stability in human plasma; format: in vitro ADME; conditions: 1 μM, 37° C., up to 120 min
Description: Metabolic stability was studied using human plasma over the time period of 120 min, with initial test concentration of 1 μM. Samples were analysed using LC/QE-orbitrap-MS. Calculated half-life is based on compound disappearance in human plasma.
The incubation was terminated by acetonitrile. […] Propanthelin bromide 1 uM was used as a disappearance rate control. […] The in vitro half-life (t1/2) of is study compound is defined as: t1/2=ln2/k.

rat hepatocytes = assay: In vitro metabolic stability in rat hepatocytes; conditions: 1 μM, 37° C., 0-60 min
[2] = In vitro metabolic stability in rat plasma; format: in vitro ADME; conditions: 1 μM, 37° C., up to 120 min
Description: Metabolic stability of the retro-inverso and native control peptides was studied using rat plasma over the time period of 120 min, with initial test concentration of 1 μM. Samples were analysed using LC/QE-orbitrap-MS. Calculated half-life is based on compound disappearance in rat plasma.
The incubation was terminated by acetonitrile. […] Stock solutions was prepared using 50% DMSO, and the compounds were spiked 1/100 to incubation to have final DMSO content of 0.5%. […] For analysis of compounds 13-14 and 19-20 stock solutions were prepared with PBS, and samples were analyzed by UHPLC-ToF mass spectrometry. Enalapril 1 μM was used as a disappearance rate control.

[3] = tested on: unfolded protein response (UPR) pathway signaling in TH-positive neurons injured with MPP+; assay: Dependence of neuroprotection in MPP+-injured mesencephalic neurons on UPR signaling (PERK / IRE1alpha inhibitors); format: cell-based, rat
Description: CDNF and MANF protect cells from ER stress-induced cell dysfunction or cell death, such as apoptosis by modulating cellular responses to ER stress. […] Binding of compounds to GRP78-NBD was assessed in a cell-free binding assay using purified recombinant GRP78-NBD and synthesized peptides. As GRP78 also serves as a critical ligand of the three receptors of the unfolded protein response (UPR) pathway, IRE1[…], PERK and ATF6, the dependency of the compounds' neuroprotective effects on UPR signaling was also tested.
The neuronal cell culture, MPP+ intoxication, immunostaining and analysis of neuroprotective effects of compounds were performed as in Example 1. PERK inhibitor GSK2606414 (2 µM, Sigma) or IRE1alpha inhibitor KIRA6 (2 µM, Sigma) were added to is the culture 1 h before addition of the test compounds.

[4] = tested on: dopaminergic TH-positive neurons injured with MPP+; assay: Neuroprotective effect on dopaminergic TH-positive neurons injured with MPP+ (primary mesencephalic culture); format: cell-based, rat; conditions: MPP+ 4 μM, 48 h; stated for 'most cases'
Description: Neuroprotective effects of compounds 1-20 (SEQ ID NO:s 1-20, parent and retro-inverso) were tested in an in vitro model in which primary cultures of rat embryonic mesencephalic neurons were stressed with MPP+, the active metabolite of neurotoxin 1-methyl-4-phenyl-1,2,3,6-tetrahydropyridine (MPTP). MPP+ kills dopaminergic (TH-positive) neurons via a variety of toxic mechanisms, including mitochondrial dysfunction, generation of peroxynitrite, oxidative stress, ER stress and induction of apoptosis.
Rat dopaminergic neurons were cultured as described by Visanji et al., 2008. Briefly, the midbrains obtained from 15-day-old rat embryos (Janvier, France) were dissected, and the ventral portion of the mesencephalic flexure, a region of the developing brain rich in dopaminergic neurons, was used for the cell preparations. The midbrain cells were dissociated by trypsinization for 20 min at 37° C. […] The reaction was stopped by adding Dulbecco's modified Eagle's medium (DMEM) containing DNAase I grade II (0.5 mg/mL) and 10% of fetal calf serum (FCS). Cells were then mechanically dissociated by 3 passages through a 10 ml pipette. Cells were then centrifuged at 180×g for 10 min at +4° C. on a layer of BSA (3.5%) in L15 medium. The cell pellets was re-suspended in a defined culture serum-free medium consisting of Neurobasal (Invitrogen) supplemented with B27 (2%), L-glutamine (2 mM) and 2% of PS solution and 10 ng/ml of Brain-derived neurotrophic factor (BDNF) and 1 ng/mL of Glial-Derived Neurotrophic Factor (GDNF). […] The cells were seeded at a density of 40 000 cells/well in 96 well-plates (pre-coated with poly-L-lysine) and maintained in a humidified incubator at 37° C. in 5% CO2/95% air atmosphere. Half of the medium was changed every 2 days with fresh medium. On 96-wells plates, only 60 wells are used. To avoid any edge effect, the first and last lines and columns were not be used for culture and were filled with sterile water.
On day 6 of culture, CDNF or the compounds 1-20 (SEQ ID NO:s 1-20, parent and retro-inverso), were dissolved in culture medium and then pre-incubated with mesencephalic neurons for 4 hours before the MPP+ application. Four hours after the preincubation of the compounds, MPP+ was added to a final concentration of 4 μM, diluted in control medium still in presence of compounds for 48 h.
48 hours after intoxication, the cells were fixed by a solution of 4% paraformaldehyde in PBS, pH 7.3 for 20 min at room temperature. The cells were washed twice in PBS, and then permeabilized and non-specific sites were blocked with a solution of PBS containing 0.1% of saponin and 1% FCS for 15 min at room temperature. Next, the cells were incubated with (a) a monoclonal antibody anti-Tyrosine Hydroxylase (TH) produced in mouse at dilution of 1:1 0000 and with (b) a polyclonal antibody anti-alpha-synuclein (aSyn) antibody produced in rabbit at dilution of 1:400 in PBS containing 1% FCS, 0.1% saponin, for 2 h at room temperature.
48 hours after intoxication, the cell culture supernatant was removed, and the cells fixed by a solution of 4% paraformaldehyde in PBS, pH 7.3 for 20 min at room temperature. The cells were washed twice in PBS, and then permeabilized and non-specific sites were blocked with a solution of PBS containing 0.1% of saponin and 1% FCS for 15 min at room temperature. Then, the cells were incubated with a) a monoclonal Anti-Tyrosine Hydroxylase (TH) antibody produced in mouse at dilution of 1:10000 in PBS containing 1% FCS, 0.1% saponin, for 2 hours at room temperature, and b) a polyclonal anti-postsynaptic density protein-95 (PSD-95) antibody produced in rabbit at dilution of 1:200 in PBS containing 1% FCS, 0.1% saponin, for 2 h at room temperature. This antibody stains specifically synapses.
For each condition, pictures representing the whole well area were automatically acquired using ImageXpress (Molecular device) at 10× (20 pictures, for TH and a-syn) or at 40× magnification (60 pictures, for TH and PSD-95). […]

[5] = In vivo pharmacokinetics after intravenous administration to rats; conditions: rat, 5 mg/kg intravenous bolus injection, male Sprague-Dawley rats, plasma
Description: Test compounds were intravenously (i.v.) administered to male Spraque-Dawley rats (about six weeks old, n=3 per compound) at 5 mg/kg. Blood samples were collected from jugular vein through implanted in-dwelling catheters (250 μl blood) into labelled polypropylene tubes containing anticoagulant (heparin) at 2 min, 5 min, 15 min, 30 min, 1 h, 2 h and 4 h after compound administration and held on wet ice for a maximum of 30 minutes. The blood samples were centrifuged for plasma separation (4° C., 21100 G, 5 min). Tolbutamide 500 ng/ml with 10% TFA in acetonitrile or in MeCN was used as an internal standard solution. The standard samples were prepared into rat plasma by spiking the matrix into concentrations 2-10 000 ng/ml of the analyte, respectively, and otherwise treated as the samples. To 50 μl aliquots of sample plasma was added 200 μl of internal standard. Samples were mixed (150 rpm, 15 min) and centrifugated (3000 rpm, 15 min). The analytical method was optimized for reaction monitoring chromatographic (peak shape & retention) shifts and mass spectrometric properties (ionization efficiency, MS/MS detection). Supernatants were is analyzed by UHPLC-TOF mass spectrometry using electrospray ionization. […]

[6] = molecular target: nucleotide-binding domain of GRP78 (GRP78-NBD); assay: Binding to GRP78-NBD Kd (μM)
Excerpt: Table printed on a drawing sheet, FIG. 5B
Head of the field: Binding to GRP78-NBD Kd (μM)
GRP78-NBD is shown in a to translucent surface model along with its cartoon trace. The Cys-Cys bond in compound 14 (SEQ ID NO: 14) is shown in sticks.
The binding affinities are obtained by microscale thermophoresis-based cell free assay.
GSK2606414 was used to inhibit PERK signaling and KIRA6 to inhibit IRE1alpha signaling. * p<0.05, ** p<0.01, *** p<0.001, **** p<0.0001 one-way ANOVA test with post-hoc Fisher's LSD test for pairwise comparison vs MPP+ negative control. #p<0.05, ##p<0.01, ###p<0.001, ####p<0.0001 one-way ANOVA test with post-hoc Fisher's LSD test for pairwise comparison between effect of compound alone and its combination with UPR signal inhibitor.
Where the first naming reader finds the target: head: Binding to GRP78-NBD Kd (μM)

Compound	stability in human hepatocytes as compared to parent compound (human hepatocytes)	stability in human plasma as compared to parent compound [1]	stability in rat hepatocytes as compared to parent compound (rat hepatocytes)	stability in rat plasma as compared to parent compound [2]	neuroprotective effect in the presence of PERK inhibitor GSK2606414 ([3]; GSK2606414 added 1 h before test compound)	neuroprotective effect in the presence of IRE1alpha inhibitor KIRA6 ([3]; KIRA6 added 1 h before test compound)	potency of retro-inverso peptides relative to their parent compounds and to full-length CDNF protein [4]	AUC(0-inf) [5]	MRT [5]	Vd [5]	half-life [5]	clearance ([5]; read-out: CI)	Kd [6]
C[C@H](O)[C@@H](NC(=O)[C@H]1CSSC[C@@H](NC(=O)[C@@H](C)NC(=O)[C@@H](CCC(=O)O)NC(=O)[C@@H](CCCCN)NC(=O)[C@H](N)CO)C(=O)NCC(=O)N[C@H](CCCCN)C(=O)N1)C(=O)N[C@H](CCC(=O)O)C(=O)NCC(=O)O [Compound 8, SKEACGKCTEG] (H-[dS][dK][dE][dA][dC]G[dK][dC][dT][dE]G-OH; disulfide 5-8; N-terminus and C-terminus assumed)	significantly improved stability	improved stability	significantly improved stability	significantly improved stability	–	–	–	–	–	–	–	–	–
C[C@H](O)[C@@H](NC(=O)[C@H]1CSSC[C@@H](NC(=O)[C@@H](C)NC(=O)[C@H](N)CCC(=O)O)C(=O)NCC(=O)N[C@H](CCCCN)C(=O)N1)C(=O)N[C@H](CCC(=O)O)C(=O)O [Compound 20, EACGKCTE]	–	–	significantly improved stability	significantly improved stability	abolished	abolished	comparable	18400 ng·h/mL	23.9 min	0.11 L/kg	20.5 min	4.57 mL/min/kg	3.4 µM
